Assay results: ChEMBL document CHEMBL1201862, “PubChem BioAssay data set” (2004)
Values belong to the compound of their own block, whether it stands above or below them. The source made the active and inactive calls.

How the values were obtained:
Assay type in all cases: functional
[1] = molecular target: Dual specificity mitogen-activated protein kinase kinase 2 (Homo sapiens, UniProt P36507); test: Navigating the Kinome. Panel member name: MAP2K2
[2] = molecular target: Dual specificity protein kinase CLK2 (Homo sapiens, UniProt P49760)
[3] = molecular target: Glycogen synthase kinase-3 beta (Homo sapiens, UniProt P49841);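 further: value comes from a broad kinome profiling panel, with GSK3B as the panel member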
Chain of Glycogen synthase kinase-3 beta (P49841 whole entry): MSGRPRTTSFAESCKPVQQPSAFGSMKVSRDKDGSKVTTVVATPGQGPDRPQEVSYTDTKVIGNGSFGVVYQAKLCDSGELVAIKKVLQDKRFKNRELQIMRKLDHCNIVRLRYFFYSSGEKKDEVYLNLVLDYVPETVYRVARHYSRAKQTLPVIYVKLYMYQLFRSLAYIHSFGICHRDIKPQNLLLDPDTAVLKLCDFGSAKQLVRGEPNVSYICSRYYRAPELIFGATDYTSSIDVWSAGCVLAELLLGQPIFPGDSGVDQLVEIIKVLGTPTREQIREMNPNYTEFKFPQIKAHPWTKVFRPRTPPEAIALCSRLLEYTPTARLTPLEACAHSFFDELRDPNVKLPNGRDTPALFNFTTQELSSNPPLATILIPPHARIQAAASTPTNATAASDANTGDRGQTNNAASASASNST

[4] = molecular target: Serine/threonine-protein kinase pim-3 (Homo sapiens, UniProt Q86V86);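 further: value obtained as one member of a broad kinase panel profiling effort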
[5] = molecular target: Serine/threonine-protein kinase Chk1 (Homo sapiens, UniProt O14757);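 further: measured as one member of a kinome-wide kinase profiling panel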
[6] = molecular target: RAC-gamma serine/threonine-protein kinase (Homo sapiens, UniProt Q9Y243)
[7] = molecular target: Fibroblast growth factor receptor 1 (Homo sapiens, UniProt P11362)
Chain of Fibroblast growth factor receptor 1 (P11362 whole entry): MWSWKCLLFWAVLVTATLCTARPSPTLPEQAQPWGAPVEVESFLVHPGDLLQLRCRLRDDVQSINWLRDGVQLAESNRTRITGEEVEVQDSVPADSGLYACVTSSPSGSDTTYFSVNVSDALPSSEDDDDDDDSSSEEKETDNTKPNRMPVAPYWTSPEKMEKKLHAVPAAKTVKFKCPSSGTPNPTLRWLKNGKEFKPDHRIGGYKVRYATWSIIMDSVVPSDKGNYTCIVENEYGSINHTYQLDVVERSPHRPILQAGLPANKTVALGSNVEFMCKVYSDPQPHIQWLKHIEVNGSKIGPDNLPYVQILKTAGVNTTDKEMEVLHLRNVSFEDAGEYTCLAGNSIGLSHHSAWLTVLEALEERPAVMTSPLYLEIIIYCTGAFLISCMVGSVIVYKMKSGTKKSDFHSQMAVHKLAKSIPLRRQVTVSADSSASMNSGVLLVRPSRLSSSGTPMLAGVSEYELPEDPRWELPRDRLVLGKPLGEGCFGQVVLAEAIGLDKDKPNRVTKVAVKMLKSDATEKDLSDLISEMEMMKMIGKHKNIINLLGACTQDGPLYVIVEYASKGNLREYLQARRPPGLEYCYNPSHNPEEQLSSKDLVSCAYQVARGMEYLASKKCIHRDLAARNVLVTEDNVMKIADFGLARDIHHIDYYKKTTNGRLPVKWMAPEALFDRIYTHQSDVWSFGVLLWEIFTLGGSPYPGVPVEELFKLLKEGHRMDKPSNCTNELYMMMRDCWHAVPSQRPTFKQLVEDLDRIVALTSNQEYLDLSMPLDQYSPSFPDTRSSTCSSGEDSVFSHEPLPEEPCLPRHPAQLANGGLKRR

[8] = molecular target: Macrophage-stimulating protein receptor (Homo sapiens, UniProt Q04912); test: Navigating the Kinome. Panel member name: MST1R
[9] = molecular target: Serine/threonine-protein kinase TBK1 (Homo sapiens, UniProt Q9UHD2); test: Navigating the Kinome. Panel member name: TBK1
[10] = molecular target: 5'-AMP-activated protein kinase catalytic subunit alpha-1 (Homo sapiens, UniProt Q13131)
[11] = molecular target: Glycogen synthase kinase-3 alpha (Homo sapiens, UniProt P49840);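 further: GSK3A result taken from a broad kinome-wide kinase panel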
[12] = molecular target: RAC-alpha serine/threonine-protein kinase (Homo sapiens, UniProt P31749);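 further: AKT1 affinity measured as one member of a kinome-wide kinase profiling panel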
[13] = molecular target: G protein-coupled receptor kinase 5 (Homo sapiens, UniProt P34947); test: Navigating the Kinome. Panel member name: GPRK5
[14] = molecular target: Serine/threonine-protein kinase PLK1 (Homo sapiens, UniProt P53350);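 further: PLK1 measured as one member of a kinome-wide profiling panel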
[15] = molecular target: Dual specificity tyrosine-phosphorylation-regulated kinase 1B (Homo sapiens, UniProt Q9Y463); test: Navigating the Kinome. Panel member name: DYRK1B
[16] = molecular target: Serine/threonine-protein kinase PLK3 (Homo sapiens, UniProt Q9H4B4)
[17] = molecular target: Serine/threonine-protein kinase Nek2 (Homo sapiens, UniProt P51955)
[18] = molecular target: Dual specificity mitogen-activated protein kinase kinase 1 (Homo sapiens, UniProt Q02750); test: Navigating the Kinome. Panel member name: MAP2K1
LIM domain kinase 1 = LIM domain kinase 1 (Homo sapiens, UniProt P53667); test: Navigating the Kinome. Panel member name: LIMK1
[19] = molecular target: cAMP-dependent protein kinase catalytic subunit PRKX (Homo sapiens, UniProt P51817)
[20] = molecular target: BDNF/NT-3 growth factors receptor (Homo sapiens, UniProt Q16620);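 further: NTRK2 measured as one member of a broad kinome-wide kinase profiling panel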
[21] = molecular target: Serine/threonine-protein kinase pim-1 (Homo sapiens, UniProt P11309)
[22] = molecular target: Casein kinase I isoform alpha (Homo sapiens, UniProt P48729)
[23] = molecular target: Mitogen-activated protein kinase 14 (Homo sapiens, UniProt Q16539);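 further: part of a kinome-wide panel, MAPK14 entry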
[24] = molecular target: Calcium/calmodulin-dependent protein kinase type II subunit alpha (Homo sapiens, UniProt Q9UQM7); test: Navigating the Kinome. Panel member name: CAMK2A
[25] = molecular target: Ribosomal protein S6 kinase alpha-3 (Homo sapiens, UniProt P51812);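 further: measured within a kinome-wide profiling panel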
Aurora kinase B = Aurora kinase B (Homo sapiens, UniProt Q96GD4)
Chain of Aurora kinase B (Q96GD4 whole entry): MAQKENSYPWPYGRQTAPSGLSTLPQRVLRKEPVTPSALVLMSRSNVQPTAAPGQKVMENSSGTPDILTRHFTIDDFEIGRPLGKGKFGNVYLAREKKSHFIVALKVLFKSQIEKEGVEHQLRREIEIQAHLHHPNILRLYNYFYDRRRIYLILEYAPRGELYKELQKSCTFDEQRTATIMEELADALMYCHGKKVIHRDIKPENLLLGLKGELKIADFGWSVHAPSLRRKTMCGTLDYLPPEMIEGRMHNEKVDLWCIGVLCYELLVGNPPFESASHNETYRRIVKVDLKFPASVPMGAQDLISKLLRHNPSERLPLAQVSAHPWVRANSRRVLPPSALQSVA

[26] = molecular target: Serine/threonine-protein kinase PAK 4 (Homo sapiens, UniProt O96013);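 further: value obtained within a kinome profiling panel in which PAK4 was one of the panel members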
[27] = molecular target: Rho-associated protein kinase 1 (Homo sapiens, UniProt Q13464);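 further: measured within a broad kinome-wide panel profiling many kinases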
[28] = molecular target: Dual specificity protein kinase CLK4 (Homo sapiens, UniProt Q9HAZ1)
Chain of Dual specificity protein kinase CLK4 (Q9HAZ1 whole entry): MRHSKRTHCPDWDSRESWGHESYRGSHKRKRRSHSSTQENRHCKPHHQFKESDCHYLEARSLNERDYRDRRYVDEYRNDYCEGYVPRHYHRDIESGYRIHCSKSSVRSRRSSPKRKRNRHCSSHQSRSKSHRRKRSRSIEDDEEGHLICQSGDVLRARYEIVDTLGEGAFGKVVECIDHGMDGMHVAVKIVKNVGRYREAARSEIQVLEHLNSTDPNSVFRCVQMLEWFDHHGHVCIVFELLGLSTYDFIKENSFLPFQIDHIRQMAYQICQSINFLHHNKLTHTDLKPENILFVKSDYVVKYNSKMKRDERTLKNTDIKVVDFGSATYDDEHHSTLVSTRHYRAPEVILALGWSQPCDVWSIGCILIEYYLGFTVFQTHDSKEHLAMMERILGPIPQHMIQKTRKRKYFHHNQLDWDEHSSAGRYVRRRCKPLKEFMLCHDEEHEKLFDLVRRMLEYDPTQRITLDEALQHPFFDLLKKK

Activated CDC42 kinase 1 = Activated CDC42 kinase 1 (Homo sapiens, UniProt Q07912); test: Navigating the Kinome. Panel member name: ACK1
[29] = molecular target: Serine/threonine-protein kinase D3 (Homo sapiens, UniProt O94806);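 further: determined within a kinase panel screen, with PRKCN as the panel member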
[30] = molecular target: Cyclin-dependent kinase 5 (Homo sapiens, UniProt Q00535);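 further: CDK5 measured as one member of a kinase profiling panel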
Chain of Cyclin-dependent kinase 5 (Q00535 whole entry): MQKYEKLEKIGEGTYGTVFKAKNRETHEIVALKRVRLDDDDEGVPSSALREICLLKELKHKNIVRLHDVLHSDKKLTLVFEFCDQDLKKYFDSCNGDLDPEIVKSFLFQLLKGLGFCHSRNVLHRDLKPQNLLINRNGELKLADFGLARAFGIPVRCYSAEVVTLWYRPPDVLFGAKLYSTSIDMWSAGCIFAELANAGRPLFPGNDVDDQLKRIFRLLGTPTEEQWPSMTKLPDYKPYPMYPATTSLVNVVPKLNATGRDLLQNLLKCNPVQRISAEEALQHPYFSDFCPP

[31] = molecular target: Mitogen-activated protein kinase 9 (Homo sapiens, UniProt P45984);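 further: value from a kinome panel profiling assay, MAPK9 panel entry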
[32] = molecular target: Dual specificity tyrosine-phosphorylation-regulated kinase 1A (Homo sapiens, UniProt Q13627);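 further: measured against DYRK1A as one member of a broad kinome profiling panel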
[33] = molecular target: Leucine-rich repeat serine/threonine-protein kinase 2 (Homo sapiens, UniProt Q5S007);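 further: value from a broad kinome-wide panel profiling study in which LRRK2 was one of the kinases tested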
[34] = molecular target: Cyclin-dependent kinase 7 (Homo sapiens, UniProt P50613);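 further: value comes from a kinome-wide kinase profiling panel in which CDK7 is one member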
[35] = molecular target: Cyclin-dependent kinase 8 (Homo sapiens, UniProt P49336); test: Navigating the Kinome. Panel member name: CDK8
[36] = molecular target: Inhibitor of nuclear factor kappa-B kinase subunit epsilon (Homo sapiens, UniProt Q14164); test: Navigating the Kinome. Panel member name: IKBKE
Chain of Inhibitor of nuclear factor kappa-B kinase subunit epsilon (Q14164 whole entry): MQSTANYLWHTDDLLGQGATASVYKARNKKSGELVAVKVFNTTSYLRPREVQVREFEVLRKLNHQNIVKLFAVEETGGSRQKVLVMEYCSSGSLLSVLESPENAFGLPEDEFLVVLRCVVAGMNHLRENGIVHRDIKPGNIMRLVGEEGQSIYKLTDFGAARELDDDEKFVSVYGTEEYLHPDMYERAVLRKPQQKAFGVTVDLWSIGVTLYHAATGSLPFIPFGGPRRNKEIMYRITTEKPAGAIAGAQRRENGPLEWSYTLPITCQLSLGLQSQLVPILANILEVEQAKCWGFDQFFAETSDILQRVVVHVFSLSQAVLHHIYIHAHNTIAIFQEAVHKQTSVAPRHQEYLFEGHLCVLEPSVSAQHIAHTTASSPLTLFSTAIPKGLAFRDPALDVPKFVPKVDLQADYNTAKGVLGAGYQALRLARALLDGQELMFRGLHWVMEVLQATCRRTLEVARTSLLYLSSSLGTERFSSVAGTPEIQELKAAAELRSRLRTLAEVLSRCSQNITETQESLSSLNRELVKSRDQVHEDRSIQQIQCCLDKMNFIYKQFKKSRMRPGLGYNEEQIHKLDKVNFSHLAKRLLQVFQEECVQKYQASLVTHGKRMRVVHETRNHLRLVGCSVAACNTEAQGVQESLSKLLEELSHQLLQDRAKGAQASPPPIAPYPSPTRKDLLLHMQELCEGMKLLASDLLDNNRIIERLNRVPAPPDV

Aurora kinase A = Aurora kinase A (Homo sapiens, UniProt O14965);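 further: value from the Navigating the Kinome kinase panel profiling, panel entry STK6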
[37] = molecular target: Vascular endothelial growth factor receptor 2 (Homo sapiens, UniProt P35968)
[38] = molecular target: Multidrug resistance protein CDR2 (Candida albicans (strain SC5314 / ATCC MYA-2876) (Yeast), UniProt P78595); test: CaCDR2 efflux pump inhibitors in yeast, dose response, S. cerevisiae AD1-8u, singleplex, Cherry Pick1 hits (AID 588604)
Chain of Multidrug resistance protein CDR2 (P78595 whole entry): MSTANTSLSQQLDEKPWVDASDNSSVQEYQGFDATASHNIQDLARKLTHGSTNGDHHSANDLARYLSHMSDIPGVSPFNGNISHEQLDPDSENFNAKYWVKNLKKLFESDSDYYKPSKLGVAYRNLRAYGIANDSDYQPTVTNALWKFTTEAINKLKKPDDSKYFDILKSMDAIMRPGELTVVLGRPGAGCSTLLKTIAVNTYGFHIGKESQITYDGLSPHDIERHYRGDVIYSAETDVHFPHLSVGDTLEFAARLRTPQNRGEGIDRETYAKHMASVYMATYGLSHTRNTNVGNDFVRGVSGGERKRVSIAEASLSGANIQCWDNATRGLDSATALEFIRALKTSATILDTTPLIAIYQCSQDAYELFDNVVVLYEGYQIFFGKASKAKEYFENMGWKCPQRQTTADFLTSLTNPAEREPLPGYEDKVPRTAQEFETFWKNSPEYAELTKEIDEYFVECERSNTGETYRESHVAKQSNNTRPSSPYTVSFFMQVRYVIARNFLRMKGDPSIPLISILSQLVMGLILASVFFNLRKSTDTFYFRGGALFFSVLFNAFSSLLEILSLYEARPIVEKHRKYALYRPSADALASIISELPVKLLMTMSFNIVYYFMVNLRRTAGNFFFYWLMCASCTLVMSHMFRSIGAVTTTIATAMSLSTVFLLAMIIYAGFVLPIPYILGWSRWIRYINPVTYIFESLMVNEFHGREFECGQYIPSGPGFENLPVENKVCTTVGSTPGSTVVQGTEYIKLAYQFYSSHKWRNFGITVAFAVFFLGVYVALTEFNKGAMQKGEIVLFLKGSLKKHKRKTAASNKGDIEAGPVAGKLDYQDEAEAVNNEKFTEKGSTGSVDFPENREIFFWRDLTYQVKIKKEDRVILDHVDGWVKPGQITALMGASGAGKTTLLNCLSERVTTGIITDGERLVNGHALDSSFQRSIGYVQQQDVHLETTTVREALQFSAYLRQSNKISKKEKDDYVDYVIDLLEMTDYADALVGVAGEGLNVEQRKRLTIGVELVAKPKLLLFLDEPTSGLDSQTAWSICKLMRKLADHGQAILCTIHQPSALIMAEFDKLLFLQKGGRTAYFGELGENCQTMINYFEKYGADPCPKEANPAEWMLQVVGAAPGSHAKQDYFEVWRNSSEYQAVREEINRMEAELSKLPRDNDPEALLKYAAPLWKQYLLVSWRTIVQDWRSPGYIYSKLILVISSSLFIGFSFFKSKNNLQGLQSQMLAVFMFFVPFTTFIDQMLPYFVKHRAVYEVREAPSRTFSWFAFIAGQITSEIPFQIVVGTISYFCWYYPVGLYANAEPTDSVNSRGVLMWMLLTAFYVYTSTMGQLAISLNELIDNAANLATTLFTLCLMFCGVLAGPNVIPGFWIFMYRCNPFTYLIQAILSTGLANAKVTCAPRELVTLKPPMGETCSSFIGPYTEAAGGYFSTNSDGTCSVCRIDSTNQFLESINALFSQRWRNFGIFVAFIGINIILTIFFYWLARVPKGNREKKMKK

[39] = nonselective inhibitors of cellular cAMP signaling, dose response, counter-screen for MC4R biased antagonist project, cell-based, TR-FRET cAMP detection (AID 602305);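 further: U2OS cells stimulated with forskolin near its EC80 as the cAMP inducer; potency is for inhibition of forskolin-stimulated cAMP signaling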
Melanocortin receptor 4 = Melanocortin receptor 4 (Homo sapiens, UniProt P32245); test: MC4R antagonist potency on cAMP, dose response, cell-based, TR-FRET, biased antagonists (AID 602298);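 further: antagonist potency against agonist-stimulated cAMP production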
[40] = molecular target: Serine/threonine-protein kinase TAO1 (Homo sapiens, UniProt Q7L7X3)
[41] = molecular target: High affinity nerve growth factor receptor (Homo sapiens, UniProt P04629);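 further: NTRK1 tested as one member of a kinome-wide profiling panel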
[42] = molecular target: Hepatocyte growth factor receptor (Homo sapiens, UniProt P08581);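 further: kinase panel profiling across the kinome, with MET as the panel member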
[43] = molecular target: cAMP-dependent protein kinase catalytic subunit alpha (Homo sapiens, UniProt P17612)

Chain of Dual specificity mitogen-activated protein kinase kinase 2 (P36507 whole entry): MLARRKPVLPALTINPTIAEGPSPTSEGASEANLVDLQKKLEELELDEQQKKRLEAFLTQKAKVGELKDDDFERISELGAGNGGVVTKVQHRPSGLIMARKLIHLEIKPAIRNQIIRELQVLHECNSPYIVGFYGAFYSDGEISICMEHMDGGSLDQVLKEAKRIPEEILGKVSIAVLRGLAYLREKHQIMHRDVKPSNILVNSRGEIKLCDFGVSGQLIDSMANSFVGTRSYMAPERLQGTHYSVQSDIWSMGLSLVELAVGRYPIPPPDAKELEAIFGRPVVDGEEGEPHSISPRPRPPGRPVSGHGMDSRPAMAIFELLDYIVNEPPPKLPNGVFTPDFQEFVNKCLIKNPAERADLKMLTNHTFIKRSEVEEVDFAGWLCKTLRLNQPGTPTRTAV

SMILES: O=C1NCc2c(Br)cccc21
Ki [1]: > 79.4 µM (inactive) | Ki [2]: > 79.4 µM (inactive) | Ki [3]: > 79.4 µM (inactive) | Ki [4]: > 79.4 µM (inactive) | Ki [5]: > 79.4 µM (inactive) | Ki [6]: > 100 µM (inactive) | Ki [7]: > 63.1 µM (inactive) | Ki [8]: > 79.4 µM (inactive) | Ki [9]: > 63.1 µM (inactive) | Ki [10]: > 63.1 µM (inactive) | Ki [11]: > 79.4 µM (inactive) | Ki [12]: > 79.4 µM (inactive) | Ki [13]: > 79.4 µM (inactive) | Ki [14]: > 79.4 µM (inactive) | Ki [15]: 31.6 µM (active) | Ki [16]: > 79.4 µM (inactive) | Ki [17]: > 63.1 µM (inactive) | Ki [18]: > 63.1 µM (inactive) | Ki (LIM domain kinase 1): > 63.1 µM (inactive) | Ki [19]: > 63.1 µM (inactive) | Ki [20]: > 79.4 µM (inactive) | Ki [21]: 50.1 µM (active) | Ki [22]: 63.1 µM (active) | Ki [23]: > 79.4 µM (inactive) | Ki [24]: > 79.4 µM (inactive) | Ki [25]: > 79.4 µM (inactive) | Ki (Aurora kinase B): > 79.4 µM (inactive) | Ki [26]: > 100 µM (inactive) | Ki [27]: 20 µM (active) | Ki [28]: 6.31 µM (active) | Ki (Activated CDC42 kinase 1): > 79.4 µM (inactive) | Ki [29]: > 79.4 µM (inactive) | Ki [30]: 63.1 µM (active) | Ki [31]: > 79.4 µM (inactive) | Ki [32]: 20 µM (active) | Ki [33]: 31.6 µM (active) | Ki [34]: > 79.4 µM (inactive) | Ki [35]: > 79.4 µM (inactive) | Ki [36]: > 63.1 µM (inactive)

SMILES: O=C(N=C(NC(=O)c1ccccc1)Nc1nc2ccccc2o1)c1ccccc1
EC50 [38]: 1.53 µM (active)

SMILES: O=C(CNC(=O)C(c1ccccc1)c1ccccc1)OCc1ccccc1
IC50 [39]: > 64.6 µM (inactive) | IC50 (Melanocortin receptor 4): > 64.6 µM (inactive)

Second part, the compound after the results:

Ki (Aurora kinase A): > 2 µM (inactive) | Ki [37]: 3.98 µM (active) | Ki (Aurora kinase B): 0.0794 µM (active)
SMILES: Nc1nc(SCC(=O)Nc2ncccn2)nc2nc[nH]c12

Ki [28]: 1.26 µM (active) | Ki [40]: 1.58 µM (active) | Ki [30]: 0.794 µM (active)
SMILES: Nc1cc(Nc2ccc(O)c(CNC(=O)C(F)(F)F)c2)ncn1

Ki [3]: 63.1 µM (active) | Ki [41]: 63.1 µM (active) | Ki [7]: 63.1 µM (active) | Ki [42]: 63.1 µM (active) | Ki [43]: 50.1 µM (active)
SMILES: O=C1NCc2ccc(-c3ccc(Cl)cc3)cc21
